These results are taken from the supplement of paper PMC10949913.

One assay has as its system CU-ACC1. Put plainly: area under concentration-response curve (viability) (AUC (a.u.)); higher = less active. The conditions noted are these: 48 h. In a few lines:
(§1)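 Three adrenocortical carcinoma cell lines in 1,536-well plates received 23 nL of each library compound at 11 concentrations and were read with CellTiter-Glo after 48 h, with 15 minutes at room temperature before measuring luminescence. Vehicle and empty-well controls served for per-plate normalisation. AC50 and area under the curve were extracted from fitted concentration-response curves, discarding all curve classes other than inhibitory or non-responding.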

In a further assay the test system is NCI-H295R. The assay is described as above. The conditions noted are these: 48 h. In a few lines: as §1

Take `CC1=NN(c2ccc(C)c(C)c2)C(=O)/C1=N/Nc1cccc(-c2cccc(C(=O)O)c2)c1O`: the “area under concentration-response curve” value turned out to be 437 in the assay on CU-ACC1 and 500 in the assay on NCI-H295R.

Consider `CN1C(=O)[C@@H](NC(=O)c2nc(Cc3ccccc3)n[nH]2)COc2ccccc21`, for which the figures for the “area under concentration-response curve” value in the assay with CU-ACC1 and in the assay with NCI-H295R were 536 and 559, respectively.

As to `O=C(O)C1(Cc2cccc(Nc3nccs3)n2)CCC(Oc2cccc(Cl)c2F)CC1` (centres undefined), the “area under concentration-response curve” value with CU-ACC1 was determined as 511; with NCI-H295R, 510.

For `OC[C@H]1O[C@H](C[C@@H]1O)[N]2C=NC3=C2\N=C/NC[C@H]3O`, the “area under concentration-response curve” value with CU-ACC1 was 485; with NCI-H295R it was 509.

In the case of `COC1=C(OC)C=C2C(=CC=NC2=C1)OC3=CC=C(NC(=O)\C4=C\N(C(C)C)C(=O)N(C4=O)C5=CC=C(F)C=C5)C=C3F`, the “area under concentration-response curve” value with CU-ACC1 worked out at 489; with NCI-H295R, 460.

In the case of `O=C(O)CC/C=C\CC[C@@H]1[C@@H](N2CCCCC2)[C@@H](O)C[C@@H]1OCc1ccc(-c2ccccc2)cc1`, the “area under concentration-response curve” value is 389 in the assay on CU-ACC1 and 424 with NCI-H295R.

For the compound `CCCCOCCOc1nc(-c2ccc(C(=O)O)c(F)c2)sc1C`, the “area under concentration-response curve” value amounted to 367 in the assay on CU-ACC1 and 399 in the assay with NCI-H295R.

Turning to `O=C(O)CCc1ccc(NCc2cccc(Oc3ccccc3)c2)cc1`, the “area under concentration-response curve” value with CU-ACC1 stood at 546; in the assay with NCI-H295R, 599.

As for `CC(C)CC(N(C)C)C1(c2ccc(Cl)cc2)CCC1` (centres undefined), the “area under concentration-response curve” value is 291 in the assay with CU-ACC1 and 349 in the assay with NCI-H295R.

In the case of `COc1nc(N)nc2c1ncn2C1OC(CO)C(O)C1O` (centres undefined), the results for the “area under concentration-response curve” value in the assay with CU-ACC1 and in the assay on NCI-H295R were 461 and 469, respectively.

Consider `COC1=CC=C2C(=CC=NC2=C1)OC3=CC=C(NC(=O)\C4=C(C)\N(CC(C)(C)O)N(C4=O)C5=CC=CC=C5)C=C3F`, for which the “area under concentration-response curve” value in the assay with CU-ACC1 amounted to 398; with NCI-H295R, 459.

For `CC#CC(=O)N1CCC[C@H]1c1nc(-c2ccc(C(=O)Nc3ccccn3)cc2)c2c(N)nccn12`, the entries for the “area under concentration-response curve” value in the assay on CU-ACC1 and in the assay with NCI-H295R were 474 and 509, respectively.

With `O=C(Nc1cccc(C(F)(F)F)c1)c1cccc2cc(Oc3cc(CO)ncn3)ccc12`, the “area under concentration-response curve” value in the assay on CU-ACC1 is 516; in the assay with NCI-H295R, 579.

With `CN(C)C1=C(Br)C=C(C=C1)C\2NC3=C(\C4=C2C(=O)CC(C)(C)C4)C5=CC=CC=C5C=C3` (centres undefined), the “area under concentration-response curve” value with CU-ACC1 was found to be 506; in the assay with NCI-H295R, 515.

For `Cc1ccc(-c2ccc3c(ccc4sc5c(c43)NC[C@@H](C)NC5=O)n2)cn1`, the results for the “area under concentration-response curve” value with CU-ACC1 and in the assay with NCI-H295R were 473 and 504, respectively.

Regarding `C[C@H](NC(=O)Cc1cc(F)cc(F)c1)C(=O)N[C@@H]1C(=O)N(C)c2ccccc2-c2ccccc21`, the “area under concentration-response curve” value in the assay with CU-ACC1 amounted to 516; with NCI-H295R it was 528.

Turning to `O=C(Nc1cnn2ccc(N3CCC[C@@H]3c3cc(F)ccc3F)nc12)N1CC[C@H](O)C1`, the “area under concentration-response curve” value is 534 with CU-ACC1 and 554 in the assay on NCI-H295R.

For `COc1cc(N2CCN(C)CC2)ccc1Nc1ncc2c(n1)N(C)c1ccccc1C(=O)N2C`, the “area under concentration-response curve” value came to 389 in the assay on CU-ACC1 and 459 with NCI-H295R.

Regarding `CC[C@@H]1[C@H](F)C(=O)N[C@@H]1COc1nccc2cc(C(N)=O)c(OC)cc12`, the entries for the “area under concentration-response curve” value in the assay with CU-ACC1 and in the assay on NCI-H295R were 472 and 532, respectively.

With `Cc1c[nH]c(-c2cnc(NCCNc3ccc(C#N)cn3)nc2-c2ccc(Cl)cc2Cl)n1`, the “area under concentration-response curve” value worked out at 538 with CU-ACC1 and 558 in the assay on NCI-H295R.

As for `CO[C@@H](C(=O)N1Cc2[nH]nc(NC(=O)c3ccc(N4CCN(C)CC4)cc3)c2C1)c1ccccc1`, the “area under concentration-response curve” value with CU-ACC1 is 539; with NCI-H295R, 549.

For `CC(=O)N[C@H]1CSSC[C@@H](C(N)=O)NC(=O)[C@H](C(C)C)NC(=O)[C@H](C)NC(=O)[C@H](Cc2cnc[nH]2)NC1=O`, the figures for the “area under concentration-response curve” value in the assay on CU-ACC1 and in the assay on NCI-H295R were 501 and 551, respectively.

Consider `O=C/1NC(=O)C(=C1C2=CN=C3C=CC=C[N]23)/C4=C[N]5CCN(CC6=C5C4=CC=C6)C(=O)N7CCOCC7`, for which the “area under concentration-response curve” value in the assay on CU-ACC1 came to 514; in the assay on NCI-H295R, 526.

Turning to `COC(=O)C[C@](O)(CCCC(C)(C)O)C(=O)O[C@@H]1C(OC)=CC23CCCN2CCc2cc4c(cc2[C@H]13)OCO4` (some centres undefined), the results for the “area under concentration-response curve” value in the assay with CU-ACC1 and in the assay on NCI-H295R were 149 and 252, respectively.

As for `O=C(Nc1ccc(F)c(C(F)(F)F)c1)Nc1nnc(-c2ccncc2)s1`, the figures for the “area under concentration-response curve” value in the assay with CU-ACC1 and with NCI-H295R were 444 and 464, respectively.

As for `C[C@@]1(c2ncncc2F)NC(=O)c2cc(-c3cn[nH]c3)ccc21`, the figures for the “area under concentration-response curve” value with CU-ACC1 and with NCI-H295R were 528 and 546, respectively.

In the case of `CC(=O)Oc1ccccc1C(=O)O`, the entries for the “area under concentration-response curve” value with CU-ACC1 and in the assay with NCI-H295R were 357 and 402, respectively.

As for `NC(=O)c1cnc2[nH]ccc2c1NC1C2CC3C[C@H]1CC(O)(C3)C2` (some centres undefined), the “area under concentration-response curve” value with CU-ACC1 is 519; in the assay with NCI-H295R it was 547.

In the case of `C/C(O)=C(\C#N)C(=O)Nc1cc(Br)ccc1Br`, the entries for the “area under concentration-response curve” value in the assay on CU-ACC1 and with NCI-H295R were 446 and 456, respectively.

For `CC(C)(O)[C@H]1CC[C@@](C)([C@H]2[C@@H](O)C[C@@]3(C)[C@@H]4C[C@H](O[C@@H]5O[C@H](CO)[C@@H](O)[C@H](O)[C@H]5O)[C@H]5C(C)(C)[C@@H](O[C@@H]6OC[C@@H](O)[C@H](O)[C@H]6O)CC[C@@]56C[C@@]46CC[C@]23C)O1`, the “area under concentration-response curve” value came to 535 with CU-ACC1 and 547 in the assay with NCI-H295R.

For the compound `CC1(C)[C@@H](O)CC[C@@]2(C)[C@H]1CC[C@]3(C)[C@@H]2C(=O)\C=C/4[C@@H]5C[C@](C)(CC[C@]5(C)CC[C@@]34C)C(O)=O`, the entries for the “area under concentration-response curve” value in the assay on CU-ACC1 and with NCI-H295R were 512 and 545, respectively.

As for `CCOC(=O)O[C@@]1(CC[C@H]2[C@@H]3CCC/4=C/C(=O)/C=C\[C@]4(C)[C@H]3[C@@H](O)C[C@]12C)C(=O)OCCl`, the “area under concentration-response curve” value is 364 in the assay with CU-ACC1 and 395 in the assay on NCI-H295R.

Consider `O=[S+]([O-])(F)Cc1ccccc1`, for which the entries for the “area under concentration-response curve” value in the assay on CU-ACC1 and with NCI-H295R were 510 and 517, respectively.

As to `CC(C)c1ccccc1Cc1cc(C(=O)Nc2ccc([S+](=O)([O-])c3ccccc3C(C)(C)C)cc2)c(O)c(O)c1O`, the entries for the “area under concentration-response curve” value in the assay on CU-ACC1 and in the assay with NCI-H295R were 293 and 205, respectively.

As to `O=C(CCNC(=O)c1ccc(OC(F)(F)F)cc1)N[C@@H]1CCCc2ccccc21`, the figures for the “area under concentration-response curve” value in the assay on CU-ACC1 and in the assay with NCI-H295R were 149 and 81, respectively.

`Cc1ccc(Nc2cc(N[C@@H]3CCCC[C@@H]3N)nnc2C(N)=O)nc1C`: the “area under concentration-response curve” value came to 516 with CU-ACC1 and 568 with NCI-H295R.

In the case of `CN1CCN(CC1)C2=NC3=C(C=CC=C3)C(=N2)C/4=C(/C(=O)NC4=O)C5=C[NH]C6=C5C=CC=C6`, the “area under concentration-response curve” value in the assay on CU-ACC1 was 498; with NCI-H295R it was 523.

Regarding `O=C\1N(N\C=C1[N]2C=CN=N2)C3=NC=NC(=C3)N4CCOCC4`, the “area under concentration-response curve” value in the assay on CU-ACC1 was 492; in the assay with NCI-H295R it was 521.

Turning to `Cc1cc(Oc2ccc3nc(COc4ccc(CC5SC(=O)NC5=O)cc4)n(C)c3c2)cc(C)c1N` (centres undefined), the “area under concentration-response curve” value in the assay with CU-ACC1 came to 512; in the assay with NCI-H295R, 556.

`CC(C)Nc1cc(C(F)(F)F)cc2nc(NC(=O)c3cccnc3)nn12`: the “area under concentration-response curve” value in the assay with CU-ACC1 was 373; with NCI-H295R, 412.

For `COC1=C(OC)C=C2C(=C1)C(=O)N(CCC[N]3C=CN=C3)\C4=C2\C(=O)C5=CC6=C(OCO6)C=C45`, the “area under concentration-response curve” value in the assay on CU-ACC1 is 468; in the assay on NCI-H295R, 517.

Turning to `Cc1ccc(Nc2cc(-c3cccc(N4C(=O)c5ccccc5C4=O)c3)ncn2)cc1N[S+](C)(=O)[O-]`, the results for the “area under concentration-response curve” value in the assay with CU-ACC1 and in the assay with NCI-H295R were 462 and 490, respectively.

In the case of `CCn1c(C(=O)N(C2CC2)C2CC2)cc2c3c(ncn3C)c(Nc3cc(C)n(C)n3)nc21`, the results for the “area under concentration-response curve” value with CU-ACC1 and in the assay on NCI-H295R were 422 and 540, respectively.

Consider `CONC(=O)Nc1ccc(-c2sc3c(c2CN(C)Cc2ccccc2)c(=O)n(-c2ccccc2)c(=O)n3Cc2c(F)cccc2F)cc1`, for which the “area under concentration-response curve” value with CU-ACC1 turned out to be 531; in the assay with NCI-H295R, 556.

On to `CC1(C)O[C@@H]2C[C@H]3[C@@H]4CCC/5=C/C(=O)/C=C\[C@]5(C)[C@H]4[C@@H](O)C[C@]3(C)[C@@]2(O1)C(=O)CO`, for which the entries for the “area under concentration-response curve” value in the assay with CU-ACC1 and with NCI-H295R were 469 and 524, respectively.

Turning to `CCc1ccc(CCOc2ccc(CC3SC(=O)NC3=O)cc2)nc1` (centres undefined), the “area under concentration-response curve” value turned out to be 112 in the assay with CU-ACC1 and 110 in the assay on NCI-H295R.

Take `C[N]1N=CN=C1[C@@H]2[C@H](NC3=CC(=CC4=C3\C2=N/NC4=O)F)C5=CC=C(F)C=C5`: the “area under concentration-response curve” value in the assay on CU-ACC1 turned out to be 405; with NCI-H295R, 415.
